From PubChem BioAssay (NCI)
“And” between values parts separate entries of the source, which are not always exact repeats. Identical values can stand only once.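 Where inhibition never reached the appropriate level, the endpoint shown equals the highest concentration tested. Otherwise, values were interpolated linearly from a five-concentration, 48-hour dose response in 96-well plates. GI50 = concentration required for 50% inhibition of growth. TGI: total growth inhibition.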

Key:
Experiment in all cases: NCI-60 cell line screen, 48 h
HCT-116 colon = tested on: HCT-116 colon
UACC-62 melanoma = tested on: UACC-62 melanoma
UO-31 renal = tested on: UO-31 renal
A498 renal = tested on: A498 renal
MALME-3M melanoma = tested on: MALME-3M melanoma
SF-268 CNS = tested on: SF-268 CNS
TK-10 renal = tested on: TK-10 renal
SF-295 CNS = tested on: SF-295 CNS
LOX IMVI melanoma = tested on: LOX IMVI melanoma
KM12 colon = tested on: KM12 colon

SMILES	TGI (HCT-116 colon)	TGI (UACC-62 melanoma)	TGI (UO-31 renal)	TGI (A498 renal)	TGI (MALME-3M melanoma)	TGI (SF-268 CNS)	TGI (TK-10 renal)	TGI (SF-295 CNS)	TGI (LOX IMVI melanoma)	TGI (KM12 colon)	GI50 (UACC-62 melanoma)	GI50 (LOX IMVI melanoma)	GI50 (A498 renal)	GI50 (MALME-3M melanoma)	GI50 (TK-10 renal)	GI50 (HCT-116 colon)	GI50 (UO-31 renal)	GI50 (SF-268 CNS)	GI50 (SF-295 CNS)	GI50 (KM12 colon)
CCCCCCCCCCCCCCCCNc1nc(=O)n(C2OC(C)C(O)C2O)cc1F (stereo not given)	36.7 µM	29 µM	27.2 µM	39.1 µM	40.7 µM	44.5 µM	30.6 µM	43 µM	55.5 µM	36.3 µM	–	–	–	–	–	–	–	–	–	–
CC(C)Oc1cccc(N2C(CCc3c[nH]c4ccc(Br)cc34)=NS(=O)(=O)c3cnccc32)c1	> 100 µM	> 100 µM	> 100 µM	> 100 µM	> 100 µM	> 100 µM	> 100 µM	> 100 µM	> 100 µM	> 100 µM	–	–	–	–	–	–	–	–	–	–
COc1cc2c(cc1O)NC(=O)[C@@H]1C[C@@H](O)CN1C2=O	> 100 µM	> 100 µM	> 100 µM	> 100 µM	> 100 µM	> 100 µM	> 100 µM	> 100 µM	> 100 µM	> 100 µM	–	–	–	–	–	–	–	–	–	–
Cc1ccc(S(=O)(=O)OCCN(CCOS(=O)(=O)c2ccc(C)cc2)c2ccc(C=O)cc2)cc1	> 100 µM	39.5 µM	41.3 µM	61 µM	97.3 µM	> 100 µM	> 100 µM	> 100 µM	> 100 µM	53 µM	–	–	–	–	–	–	–	–	–	–
CCNC(=S)N/N=C(/C)c1cccc(/C(C)=N\NC(=S)NCC)n1	13.1 µM	27.2 µM	> 63.6 µM	56.7 µM	> 44.6 µM	> 100 µM	19.1 µM	> 38.8 µM	35.8 µM	> 51.1 µM	–	–	–	–	–	–	–	–	–	–
COC1=C(OC)C(=O)C(Cc2c(Cl)nc3sccn23)=C(C)C1=O	41.3 µM	20.6 µM	23.6 µM	28.5 µM	13.7 µM	30.4 µM	26.6 µM	25.4 µM	10.4 µM	22.3 µM	–	–	–	–	–	–	–	–	–	–
CC(=O)c1c(-c2ccc(Cl)cc2)c(C#N)c(=S)n(C2OC(CO)C(O)C(O)C2O)c1C (stereo not given)	> 100 µM	57.8 µM	6.92 µM	> 100 µM	> 100 µM	> 100 µM	> 100 µM	> 100 µM	> 100 µM	> 100 µM	–	–	–	–	–	–	–	–	–	–
Cc1ccc(S(=O)(=O)N/N=c2/sc3ccccc3n2C)cc1	> 100 µM	> 100 µM	> 100 µM	> 100 µM	> 100 µM	> 100 µM	> 100 µM	> 100 µM	> 100 µM	> 100 µM	–	–	–	–	–	–	–	–	–	–
CCOC(=O)C(Cc1ccc(N=NN(C)C)cc1)NC(=O)CC1c2ccccc2-c2ccccc21 (stereo not given)	> 100 µM	> 100 µM	> 100 µM	> 100 µM	> 100 µM	> 100 µM	> 100 µM	> 100 µM	> 100 µM	> 100 µM	–	–	–	–	–	–	–	–	–	–
C/C(CCN(C)C)=N/O	12.5 µM	24 µM	31.5 µM	35.1 µM	10.8 µM	2.49 µM	20.2 µM	81.5 µM	16.3 µM	25.5 µM	–	–	–	–	–	–	–	–	–	–
[N-]=[N+]=CC(=O)C1CCN(c2ccccc2)C1=O (stereo not given)	> 10 µM	> 10 µM	> 10 µM	> 10 µM	> 10 µM	> 10 µM	> 10 µM	> 10 µM	> 10 µM	> 10 µM	–	–	–	–	–	–	–	–	–	–
O=c1c2ccc(Cl)cc2oc2c(CSc3ccccc3)cccc12	> 100 µM	> 83.3 µM	> 38.4 µM	> 79.1 µM	> 61.1 µM	> 100 µM	> 100 µM	> 100 µM	> 91.9 µM	> 65.3 µM	–	–	–	–	–	–	–	–	–	–
CC(=O)Oc1cc2c(cc1OCC(F)(F)F)[C@H]1CC[C@]3(C)[C@@H](OC(C)=O)CC[C@H]3[C@@H]1CC2=O	55 µM	42.6 µM	42.2 µM	27 µM	47.9 µM	> 77.4 µM	46.2 µM	88.3 µM	> 78 µM	74.9 µM	–	–	–	–	–	–	–	–	–	–
COc1ccccc1N=Nc1c(O)ccc2ccccc12	> 100 µM	> 100 µM	39.1 µM	62.3 µM and 89.2 µM	16.2 µM and > 100 µM	> 100 µM	31.8 µM and 59.1 µM	48.3 µM and 78.2 µM	> 100 µM	> 100 µM	30.4 µM and 61.4 µM	25.1 µM and 55.7 µM	–	–	–	–	–	–	–	–
Cn1c(CO)ccc1-c1ccc(-c2ccc(CO)[se]2)[se]1	60 µM	31.5 µM	> 100 µM	0.0684 µM	17.7 µM	> 100 µM	> 78.1 µM	> 100 µM	41.2 µM	> 64.1 µM	–	–	–	–	–	–	–	–	–	–
CC(C)=CC1C(C(=O)OCc2cc3c(cc2Cl)OCO3)C1(C)C (stereo not given)	> 100 µM	> 100 µM	> 100 µM	> 100 µM	49 µM	> 100 µM	> 100 µM	> 100 µM	33.5 µM	> 100 µM	–	–	–	–	–	–	–	–	–	–
CC(C)OC(=O)C(NC(=O)C(CC(=O)OCc1ccccc1)NC(=O)OCc1ccccc1)NC(=O)C1C(C)(C)CCC1(C)C (stereo not given)	12 µM	47.9 µM	13.4 µM	4.37 µM	44.9 µM	45.9 µM	34.5 µM	31.1 µM	11.6 µM	34.9 µM	–	–	–	–	–	–	–	–	–	–
COCc1cc2c(s1)C(=O)C1=C(C2=O)C2(C=C(Br)C(=O)C(Br)=C2)CCN1	3.11 µM	3.08 µM	25.4 µM	29.6 µM	2.23 µM	17.8 µM	32.4 µM	19.3 µM	7.68 µM	17.9 µM	–	–	–	–	–	–	–	–	–	–

SMILES	TGI (HCT-116 colon)	TGI (UACC-62 melanoma)	TGI (UO-31 renal)	TGI (A498 renal)	TGI (MALME-3M melanoma)	TGI (SF-268 CNS)	TGI (TK-10 renal)	TGI (SF-295 CNS)	TGI (LOX IMVI melanoma)	TGI (KM12 colon)	GI50 (UACC-62 melanoma)	GI50 (LOX IMVI melanoma)	GI50 (A498 renal)	GI50 (MALME-3M melanoma)	GI50 (TK-10 renal)	GI50 (HCT-116 colon)	GI50 (UO-31 renal)	GI50 (SF-268 CNS)	GI50 (SF-295 CNS)	GI50 (KM12 colon)
COc1c(OC2OC(CO)C(O)C(O)C2O)cc2c(c1OC)-c1ccc(OC)c(=O)cc1C(NC(C)=O)CC2 (stereo not given)	> 100 µM	> 100 µM	> 100 µM	> 100 µM	> 100 µM	> 100 µM	> 100 µM	> 100 µM	> 100 µM	> 100 µM	–	–	–	–	–	–	–	–	–	–
CN(Cc1cnc2nc(N)nc(N)c2n1)c1ccc(C(=O)NC(CCC(=O)O)C(=O)O)c2ccccc12 (stereo not given)	> 1000 µM	> 1000 µM	> 1000 µM	> 1000 µM	> 1000 µM	> 1000 µM	> 1000 µM	> 1000 µM	> 1000 µM	> 1000 µM	–	–	0.0152 µM	> 1000 µM	> 1000 µM	–	–	–	–	–
COc1cc(C=O)cc(C=Nc2ccc(Br)cc2)c1O	> 100 µM	50.1 µM	50.6 µM	40.7 µM	17.2 µM	27.8 µM	> 100 µM	21.1 µM	29.8 µM	> 100 µM	–	–	–	–	–	–	–	–	–	–
CC1(C)CCC[C@@]2(C)C1CC[C@@]1(CO)O[C@H](C3=CC(=O)OC3O)C[C@H]12 (stereo not given in full)	18.6 µM	15.3 µM	29.2 µM	30.1 µM	24.2 µM	> 55.6 µM	34.4 µM	50.5 µM	3.42 µM	36.3 µM	–	–	–	–	–	–	–	–	–	–
COc1ccc(O[C@H](CO)C[C@@H]2COC(C)(C)O2)cc1	> 100 µM	> 100 µM	> 100 µM	> 100 µM	> 100 µM	> 100 µM	> 100 µM	> 100 µM	> 100 µM	> 100 µM	–	–	–	–	–	–	–	–	–	–
C[n+]1c2ccccc2n2c3ccccc3c(NCCCn3ccnc3)c(C#N)c21	10.1 µM	17.6 µM	42.6 µM	46.5 µM	4.5 µM	6.98 µM	59.5 µM	17.4 µM	2.51 µM	17.7 µM	–	–	–	–	–	–	–	–	–	–
CC(C)CNP(=O)(NCC(C)C)Oc1ccc(CC(NC(=O)OCc2ccccc2)C(=O)OCc2ccccc2)cc1 (stereo not given)	37.6 µM	34.1 µM	39 µM	50.8 µM	34.9 µM	33 µM	> 100 µM	98.4 µM	32.5 µM	38.3 µM	–	–	–	–	–	–	–	–	–	–
Cc1n[nH]c(=O)n1-n1cccc1	> 100 µM	> 100 µM	> 100 µM	> 100 µM	> 100 µM	> 100 µM	> 100 µM	> 100 µM	> 100 µM	> 100 µM	–	–	–	–	–	–	–	–	–	–
O=c1[nH]nc(Nc2ccc(Cl)cc2)c2nnn(C3CCCCC3)c12	> 100 µM	> 100 µM	> 100 µM	> 100 µM	> 100 µM	> 100 µM	> 100 µM	> 100 µM	43.3 µM	> 100 µM	–	–	–	–	–	–	–	–	–	–
COc1cc2c(cc1O)C(Cc1ccc(OCc3ccccc3)c(OCc3ccccc3)c1)N(C(=O)NCCc1ccccc1)CC2 (stereo not given)	> 100 µM	> 100 µM	> 100 µM	> 100 µM	> 100 µM	> 100 µM	> 100 µM	> 100 µM	> 100 µM	> 100 µM	–	–	–	–	–	–	–	–	–	–
N#Cc1cc(F)cc(Oc2ccc(S(=O)(=O)C(F)F)c3c2CC(F)(F)[C@H]3O)c1	> 100 µM	> 100 µM	69.9 µM	73.6 µM	> 100 µM	> 100 µM	82.4 µM	79.2 µM	> 100 µM	> 100 µM	21.7 µM	35 µM	20.6 µM	28.5 µM	28.4 µM	25.2 µM	15.1 µM	35.4 µM	24.9 µM	44.8 µM
Cc1ccc(C(=O)Nc2ccc(CP(=O)(O)O)cc2CP(=O)(O)O)cc1N	> 100 µM	> 100 µM	> 100 µM	> 100 µM	> 100 µM	> 100 µM	> 100 µM	> 100 µM	> 100 µM	> 100 µM	–	–	–	–	–	–	–	–	–	–
CN1C(c2ccccc2)CC(O)CC1c1ccccc1 (stereo not given)	> 100 µM	> 100 µM	> 100 µM	> 100 µM	> 100 µM	> 100 µM	> 100 µM	> 100 µM	> 100 µM	> 100 µM	–	–	–	–	–	–	–	–	–	–
Cc1nnc(SCc2nc(C#N)c(C#N)nc2CSc2nnc(C)s2)s1	11.5 µM	30.7 µM	24.1 µM	> 66.5 µM	13 µM	35.4 µM	16.3 µM	> 100 µM	23.3 µM	37 µM	–	–	–	–	–	–	–	–	–	–
COC(=O)c1c(O)ccc2c1c1c(n2Cc2ccc(OC)cc2)C(=O)c2ccccc2C1	> 100 µM	> 100 µM	> 100 µM	> 100 µM	> 100 µM	> 100 µM	> 100 µM	> 100 µM	> 100 µM	> 100 µM	–	–	–	–	–	–	–	–	–	–
NC(=O)CSc1nc2ccccc2c(=O)n1N	> 100 µM	> 100 µM	> 100 µM	> 100 µM	> 100 µM	> 100 µM	> 100 µM	> 100 µM	> 100 µM	> 100 µM	–	–	–	–	–	–	–	–	–	–
O=C(O)[C@H]1NC[C@H]2C(Br)=NO[C@@H]12	> 100 µM	> 100 µM	> 100 µM	> 100 µM	> 100 µM	> 100 µM	> 100 µM	> 100 µM	> 100 µM	> 100 µM	–	–	–	–	–	–	–	–	–	–
